By Kb is commonly meant the equilibrium dissociation constant of an antagonist, usually derived from a functional assay.

These results are taken from patent US5698522A, “6-position modified decapeptide LHRH antagonists” (Abbott Laboratories, priority 1995, dated 1997).

For the assay, the target named is T1, LHRH receptor (Rattus norvegicus, UniProt P30969).
T1 construct: endogenous in cells
T1 sequence (P30969 1-327): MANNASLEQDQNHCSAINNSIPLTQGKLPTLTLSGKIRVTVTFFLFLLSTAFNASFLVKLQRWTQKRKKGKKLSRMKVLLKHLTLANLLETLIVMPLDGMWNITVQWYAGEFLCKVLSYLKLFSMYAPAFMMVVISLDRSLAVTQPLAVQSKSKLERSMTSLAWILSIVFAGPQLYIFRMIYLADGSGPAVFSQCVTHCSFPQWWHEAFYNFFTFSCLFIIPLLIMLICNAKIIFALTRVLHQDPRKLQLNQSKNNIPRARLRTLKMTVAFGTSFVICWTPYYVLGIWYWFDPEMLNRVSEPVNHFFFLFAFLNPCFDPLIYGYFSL
Nature of the assay: in vitro LHRH antagonist potency (pA2) against the agonist leuprolide. Conditions: negative logarithm of the antagonist concentration which shifts the response curve produced by the agonist leuprolide to two-fold higher concentration. Type of assay: cell-based. Put shortly:
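Functional antagonism against the agonist leuprolide. pA2 is the negative log of antagonist concentration that shifts the leuprolide response curve to twofold higher concentration.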

*1 amine or outer side, *2 acyl side, *3 side chain or, on linkers, in order; H or OH if unused. Where a SMILES comes first, the peptide text is derived from it. Side-chain parts run from the residue outwards. [ ]: non-standard residue; d: D form. The star is where a group is joined. Shikimoyl = O=C(C1=C[C@@H](O)[C@@H](O)[C@H](O)C1)*; Quinoline4carbonyl = O=C(c1ccnc2ccccc12)*; dPhe(4-Cl) = N[C@H](Cc1ccc(Cl)cc1)C(=O)O; d2Nal = N[C@H](Cc1ccc2ccccc2c1)C(=O)O; Lys(iPr) = CC(C)NCCCC[C@H](N)C(=O)O; NMeY = CN[C@@H](Cc1ccc(O)cc1)C(=O)O; Ethylenediamine = C(CN[*:2])N[*:1]; Thiophene2carbonyl = O=C(c1cccs1)*; Pyrazinecarbonyl = O=C(c1cnccn1)*; hArg = N=C(N)NCCCC[C@H](N)C(=O)O; d3Pal = N[C@H](Cc1cccnc1)C(=O)O; Nicotinoyl = O=C(c1cccnc1)*; 2Furoyl = O=C(c1ccco1)*; CO = O=C([*:1])[*:2]; X2 = O=C(c1ccoc1)*; azaGly = NNC(=O)O; Sar = CNCC(=O)O

With `CC(=O)N[C@H](Cc1ccc2ccccc2c1)C(=O)N[C@H](Cc1ccc(Cl)cc1)C(=O)N[C@H](Cc1cccnc1)C(=O)N[C@@H](CO)C(=O)N(C)[C@@H](Cc1ccc(O)cc1)C(=O)N[C@H](CCCCNC(=O)CNC(=O)CNC(=O)c1cccnc1)C(=O)N[C@@H](CC(C)C)C(=O)N[C@@H](CCCCNC(C)C)C(=O)N1CCC[C@H]1C(=O)N[C@H](C)C(N)=O` [Example 19c, NAc-D2Nal^1 -D4ClPhe^2 -D3Pal^3 -Ser^4 -NMeTyr^5 -DLys[N-epsilon-Gly-Gly-Nicotinyl]^6 -Leu^7 -Lys(N-epsilon-Isopropyl)^8 -Pro^9 -DAla^10 NH2] (Ac-[d2Nal][dPhe(4-Cl)][d3Pal]S[NMeY][dK]([Gly-Gly-Nicotinoyl])L[Lys(iPr)]P[dA]-NH2), the Kb was 3.31 pM. For `CC(=O)N[C@H](Cc1ccc2ccccc2c1)C(=O)N[C@H](Cc1ccc(Cl)cc1)C(=O)N[C@H](Cc1cccnc1)C(=O)N[C@@H](CO)C(=O)N(C)[C@@H](Cc1ccc(O)cc1)C(=O)N[C@H](CCCCNC(=O)[C@H](NC(=O)C1=C[C@@H](O)[C@@H](O)[C@H](O)C1)[C@H](C)O)C(=O)N[C@@H](CC(C)C)C(=O)N[C@@H](CCCNC(=N)N)C(=O)N1CCC[C@H]1C(=O)N[C@H](C)C(N)=O` [Example 38d, NAc-D2Nal^1 -D4ClPhe^2 -D3Pal^3 -Ser^4 -NMeTyr^5 -DLys(N-epsilon-DThr-Shikimyl)^6 -Leu^7 -Arg^8 -Pro^9 -DAla^10 NH2] (Ac-[d2Nal][dPhe(4-Cl)][d3Pal]S[NMeY][dK]([dT-Shikimoyl])LRP[dA]-NH2), the Kb was 20 pM. The figure for `CC(=O)N[C@H](CO)C(=O)NCCCC[C@@H](NC(=O)[C@H](Cc1ccc(O)cc1)N(C)C(=O)[C@H](CO)NC(=O)[C@@H](Cc1cccnc1)NC(=O)[C@@H](Cc1ccc(Cl)cc1)NC(=O)[C@@H](Cc1ccc2ccccc2c1)NC(C)=O)C(=O)N[C@@H](CC(C)C)C(=O)N[C@@H](CCCCNC(=N)N)C(=O)N1CCC[C@H]1C(=O)N[C@H](C)C(N)=O` [Example 13, NAc-D2Nal^1 -D4ClPhe^2 -D3Pal^3 -Ser^4 -NMeTyr^5 -DLys(N-epsilon-DSer-Acetyl)^6 -Leu^7 -Harg^8 -Pro^9 -DAla^10 NH2] (Ac-[d2Nal][dPhe(4-Cl)][d3Pal]S[NMeY][dK]([dS-Ac])L[hArg]P[dA]-NH2) is 7.94 pM. The figure for `CC(=O)N[C@H](Cc1ccc2ccccc2c1)C(=O)N[C@H](Cc1ccc(Cl)cc1)C(=O)N[C@H](Cc1cccnc1)C(=O)N[C@@H](CO)C(=O)N(C)[C@@H](Cc1ccc(O)cc1)C(=O)N[C@H](CCCCNC(=O)[C@@H](CO)NC(=O)c1ccnc2ccccc12)C(=O)N[C@@H](CC(C)C)C(=O)N[C@@H](CCCNC(=N)N)C(=O)N1CCC[C@H]1C(=O)N[C@H](C)C(N)=O` [Example 50e, NAc-D2Nal^1 -D4ClPhe^2 -D3Pal^3 -Ser^4 -NMeTyr^5 -DLys(N-epsilon-DSer-4-Quinolinyl)^6 -Leu^7 -Arg^8 -Pro^9 -DAla^10 NH2] (Ac-[d2Nal][dPhe(4-Cl)][d3Pal]S[NMeY][dK]([dS-Quinoline4carbonyl])LRP[dA]-NH2) is 28.8 pM; for `CC(=O)N[C@H](Cc1ccc2ccccc2c1)C(=O)N[C@H](Cc1ccc(Cl)cc1)C(=O)N[C@H](Cc1cccnc1)C(=O)N[C@@H](CO)C(=O)N(C)[C@@H](Cc1ccc(O)cc1)C(=O)N[C@H](CCCCNC(=O)NCCNC(=O)c1cccnc1)C(=O)N[C@@H](CC(C)C)C(=O)N[C@@H](CCCNC(=N)N)C(=O)N1CCC[C@H]1C(=O)N[C@H](C)C(N)=O` [Example 14, NAc-D2Nal^1 -D4ClPhe^2 -D3Pal^3 -Ser^4 -NMeTyr^5 -DLys[N-epsilon-(N'-Carbonyl-Diaminoethane-N"-Nicotinyl)]^6 -Leu^7 -Arg^8 -Pro^9 -DAla^10 NH2] (Ac-[d2Nal][dPhe(4-Cl)][d3Pal]S[NMeY][dK]([CO-Ethylenediamine-Nicotinoyl])LRP[dA]-NH2) it is 166 pM.

`CC(=O)N[C@H](Cc1ccc2ccccc2c1)C(=O)N[C@H](Cc1ccc(Cl)cc1)C(=O)N[C@H](Cc1cccnc1)C(=O)N[C@@H](CO)C(=O)N(C)[C@@H](Cc1ccc(O)cc1)C(=O)N[C@H](CCCCNC(=O)NNC(=O)c1cccs1)C(=O)N[C@@H](CC(C)C)C(=O)N[C@@H](CCCCNC(C)C)C(=O)N1CCC[C@H]1C(=O)N[C@H](C)C(N)=O` [Example 5b, NAc-D2Nal^1 -D4ClPhe^2 -D3Pal^3 -Ser^4 -NMeTyr^5 -DLys(N-epsilon-Azagly-2-Thienylcarbonyl)^6 -Leu^7 -Lys(N-epsilon-Isopropyl)^8 -Pro^9 -DAla^10 NH2] (Ac-[d2Nal][dPhe(4-Cl)][d3Pal]S[NMeY][dK]([azaGly-Thiophene2carbonyl])L[Lys(iPr)]P[dA]-NH2): the Kb was 2.95 pM. The figure for `CC(=O)N[C@H](Cc1ccc2ccccc2c1)C(=O)N[C@H](Cc1ccc(Cl)cc1)C(=O)N[C@H](Cc1cccnc1)C(=O)N[C@@H](CO)C(=O)N(C)[C@@H](Cc1ccc(O)cc1)C(=O)N[C@H](CCCCNC(=O)CNC(=O)c1ccoc1)C(=O)N[C@@H](CC(C)C)C(=O)N[C@@H](CCCNC(=N)N)C(=O)N1CCC[C@H]1C(=O)N[C@H](C)C(N)=O` [Example 51a, NAc-D2Nal^1 -D4ClPhe^2 -D3Pal^3 -Ser^4 -NMeTyr^5 -DLys(N-epsilon-Gly-3-Furoyl)^6 -Leu^7 -Arg^8 -Pro^9 -DAla^1 -NH2] (Ac-[d2Nal][dPhe(4-Cl)][d3Pal]S[NMeY][dK]([Gly-X2])LRP[dA]-NH2) is 11 pM; for `CC(=O)N[C@H](Cc1ccc2ccccc2c1)C(=O)N[C@H](Cc1ccc(Cl)cc1)C(=O)N[C@H](Cc1cccnc1)C(=O)N[C@@H](CO)C(=O)N(C)[C@@H](Cc1ccc(O)cc1)C(=O)N[C@H](CCCCNC(=O)CN(C)C(=O)C1=C[C@@H](O)[C@@H](O)[C@H](O)C1)C(=O)N[C@@H](CC(C)C)C(=O)N[C@@H](CCCNC(=N)N)C(=O)N1CCC[C@H]1C(=O)N[C@H](C)C(N)=O` [Example 48f, NAc-D2Nal^1 -D4ClPhe^2 -D3Pal^3 -Ser^4 -NMeTyr^5 -DLys(N-epsilon-Sar-Shikimyl)^6 -Leu^7 -Arg^8 -Pro^9 -DAla^10 NH2] (Ac-[d2Nal][dPhe(4-Cl)][d3Pal]S[NMeY][dK]([Sar-Shikimoyl])LRP[dA]-NH2) it is 12.6 pM; for `CC(=O)N[C@H](Cc1ccc2ccccc2c1)C(=O)N[C@H](Cc1ccc(Cl)cc1)C(=O)N[C@H](Cc1cccnc1)C(=O)N[C@@H](CO)C(=O)N(C)[C@@H](Cc1ccc(O)cc1)C(=O)N[C@H](CCCCNC(=O)[C@@H](CO)NC(=O)c1cnccn1)C(=O)N[C@@H](CC(C)C)C(=O)N[C@@H](CCCNC(=N)N)C(=O)N1CCC[C@H]1C(=O)N[C@H](C)C(N)=O` [Example 50g, NAc-D2Nal^1 -D4ClPhe^2 -D3Pal^3 -Ser^4 -NMeTyr^5 -DLys(N-epsilon-DSer-2-Pyrazinecarbonyl)^6 -Leu^7 -Arg^8 -Pro^9 -DAla^10 NH2] (Ac-[d2Nal][dPhe(4-Cl)][d3Pal]S[NMeY][dK]([dS-Pyrazinecarbonyl])LRP[dA]-NH2) it is 12.6 pM.

Consider `CC(=O)N[C@H](Cc1ccc2ccccc2c1)C(=O)N[C@H](Cc1ccc(Cl)cc1)C(=O)N[C@H](Cc1cccnc1)C(=O)N[C@@H](CO)C(=O)N(C)[C@@H](Cc1ccc(O)cc1)C(=O)N[C@H](CCCCNC(=O)NCCNC(=O)c1ccco1)C(=O)N[C@@H](CC(C)C)C(=O)N[C@@H](CCCNC(=N)N)C(=O)N1CCC[C@H]1C(=O)N[C@H](C)C(N)=O` [Example 36, NAc-D2Nal^1 -D4ClPhe^2 -D3Pal^3 -Ser^4 -NMeTyr^5 -DLys[N-epsilon-(N'-Carbonyl-Diaminoethane-N"-Furoyl)]^6 -Leu^7 -Arg^8 -Pro^9 -DAla^10 NH2] (Ac-[d2Nal][dPhe(4-Cl)][d3Pal]S[NMeY][dK]([CO-Ethylenediamine-2Furoyl])LRP[dA]-NH2), for which the Kb is 10.7 pM. For `CC(=O)N[C@H](Cc1ccc2ccccc2c1)C(=O)N[C@H](Cc1ccc(Cl)cc1)C(=O)N[C@H](Cc1cccnc1)C(=O)N[C@@H](CO)C(=O)N(C)[C@@H](Cc1ccc(O)cc1)C(=O)N[C@H](CCCCNC(=O)[C@@H](CO)NC(=O)C1=C[C@@H](O)[C@@H](O)[C@H](O)C1)C(=O)N[C@@H](CC(C)C)C(=O)N[C@@H](CCCNC(=N)N)C(=O)N1CCC[C@H]1C(=O)N[C@H](C)C(N)=O` [Example 11, NAc-D2Nal^1 -D4ClPhe^2 -D3Pal^3 -Ser^4 -NMeTyr^5 -DLys(N-epsilon-DSer-Shikimyl)^6 -Leu^7 -Arg^8 -Pro^9 -DAla^10 NH2] (Ac-[d2Nal][dPhe(4-Cl)][d3Pal]S[NMeY][dK]([dS-Shikimoyl])LRP[dA]-NH2) the value was 17 pM; for `CC(=O)N[C@H](Cc1ccc2ccccc2c1)C(=O)N[C@H](Cc1ccc(Cl)cc1)C(=O)N[C@H](Cc1cccnc1)C(=O)N[C@@H](CO)C(=O)N(C)[C@@H](Cc1ccc(O)cc1)C(=O)N[C@H](CCCCNC(=O)CNC(=O)c1ccco1)C(=O)N[C@@H](CC(C)C)C(=O)N[C@@H](CCCCNC(C)C)C(=O)N1CCC[C@H]1C(=O)N[C@H](C)C(N)=O` [Example 6a, NAc-D2Nal^1 -D4ClPhe^2 -D3Pal^3 -Ser^4 -NMeTyr^5 -DLys(N-epsilon-Gly-2-Furoyl)^6 -Leu^7 -Lys(N-epsilon-Isopropyl)^8 -Pro^9 -DAla^10 NH2] (Ac-[d2Nal][dPhe(4-Cl)][d3Pal]S[NMeY][dK]([Gly-2Furoyl])L[Lys(iPr)]P[dA]-NH2), 15.8 pM.
